{"source": "patent US20240010726A1", "about": "“LFA-1 SIGNALLING MEDIATOR FOR USE IN CANCER THERAPY” (Universität Basel, priority 2020, published 2024)", "key": {"MC38-OVA tumor cells": {"test_system": "MC38-OVA tumor cells", "experiment": "Murine MC38-OVA tumor model, in vivo CD8+ T cell depletion", "settings": "OVA immunized mice; 3 mM MgCl2 vs NaCl i.t.; anti-CD8a Ab 10 mg kg^−1 i.p. weekly", "protocol": "FIG. 1: Intratumoral magnesium administration improves adaptive anti-tumor immunity. (a) Schematic of experimental design. B1/6 mice, either immunized with OVA or left untreated, were inoculated subcutaneously with MC38-OVA tumor cells bilaterally on the flanks. From day 7, injection of 3 mM NaCl solution was applied in left flank tumor, whereas 3 mM MgCl2 solution was injected in contralateral tumor. This regimen was repeated every third day for a total of 8 cycles. (b) Tumor growth curves in non-immunized mice (n=20) (left panel), and immunized mice (n=19) (right panel). (c) Tumor growth curves in ±CD8 depleted mice (n=6-17). Results were pooled from 2 independent experiments, with n=6-12 mice each. (d) Absolute numbers of tumor-infiltrating CD8^+ T cells. (e) Number of tumor-infiltrating CD8^+ T cells positive for Ki67 (left panel), Granzyme B (middle panel) and CD25 (right panel). (f) Cell number of tumor-infiltrating CD8^+ T cells expressing PD-1 and Tim3. (g) Schematic of experimental design. B1/6 mice, immunized with OVA, were inoculated subcutaneously with MC38-OVA tumor cells unilaterally on the flank. From day 5, intratumoral injections of either 3 mM NaCl or 3 mM MgCl2 were initiated, and repeated every third day for 8 cycles. Mice were additionally injected with 200 μg i.p. of isotype control (IgG2a) or anti-PD-1 Ab on day 9, 12, and 15. […]"}, "PSMA+ PC3-PIP cell line": {"test_system": "PSMA+ PC3-PIP cell line", "experiment": "Cytotoxicity assay with anti-PSMA CAR T cells (IncuCyte)", "format": "cell-based, human", "settings": "time-lapse killing; E:T 2:1; 0 mM vs 0.6 mM Mg^2+", "protocol": "FIG. 3: Magnesium regulates LFA-1 mediated T cell activation and cytotoxicity as well BiTE- and CAR T-cell functionality. (a) Glycolytic switch of murine WT and LFA-1^-/- CTLs upon injection of anti-CD3/28 Ab in medium containing 1.2 mM Mg^2+ and 0 mM Mg^2+, presented as quantification of summarized data with n=4 mice. (b) Calcium flux in WT and LFA-1^-/- Jurkat T cells stimulated with anti-CD3 Ab in 1.2 mM and 0 mM Mg^2+ medium, respectively. Cells were loaded with Fluo4, and signal intensity as recorded by plate reader, was normalized to unstimulated baseline values. […] Quantified results of n=3 mice with 3 technical replicates each. […] The effector to target cell ratio was 3:1. Results are quantified of n=3 mice with 3 technical replicates each. (e) Representative CD11a (LFA-1) surface expression on human naïve and EM CD8 T cells, PHA T cell blasts and REP T cells, assessed by flow cytometry. […] The effector to target cell ratio was 1:1. Data is presented as quantified results of n=5 healthy donors (f, g, h), n=3 healthy donors with 2 technical replicates each or n=1 healthy donor with 4 technical replicates (j). […] Data is presented as quantified results of n=1 healthy donor with 4 technical replicates. […] (p) Abundance of IFNγ in cell culture supernatants corresponding to the conditions depicted in (o) at 24 hours was determined by ELISA (n=8, 3 independent experiments). […]"}}, "data": [{"compound": "[Mg+2]", "note": "[Mg^2+, Magnesium]", "values": [{"measurement": "Tumor growth in ±CD8 depleted mice", "setting": "MC38-OVA tumor cells", "result": "exerted its effect via CD8^+ T cells"}, {"measurement": "Cytolytic activity of CAR T cells against tumor target cells", "setting": "PSMA+ PC3-PIP cell line", "result": "impaired the cytolytic activity"}]}]}
